Results reported in patent US20200071357A1, “ANTIMICROBIAL PEPTIDES” (UNIVERSITETET I TROMSØ - NORGES ARKTISKE UNIVERSITET, priority 2016, published 2020).
Read-outs that look alike come from different tables or passages of the source. Where no end group is shown, it is not given here.

Tests used:
Format in all cases: cell-based
[1] = test system: Corynebacterium glutamicum (Cg, ATCC 13032)
Description: (§1) The peptides were screened for antibacterial activity against two strains of Gram-positive and two strains of Gram-negative bacteria; Corynebacterium glutamicum (Cg, ATCC 13032), Staphylococcus aureus (Sa, ATCC 9144), Pseudomonas aeruginosa (Pa, ATCC 27853) and Escherichia coli (Ec, ATCC 25922).
(§2) Cultures stored at −80° C. in glycerol were transferred to Müller-Hinton plates (MH, Difco, Lawrence, Kans., USA) and incubated for 24 h at 35° C. A few colonies of each bacterial strain were transferred to 5 ml liquid MH medium and left shaking at room temperature overnight at 600 rpm. Cultures of actively growing bacteria (20 μl) were inoculated in 5 ml MH medium and left shaking for 2 h at room temperature. The antibacterial assays were performed as previously described by Sperstad, S. V., et al. ((2009) Mol. Immunol. 46, 2604-2612) with the following exception: bacterial cultures were diluted with medium to 2.5-3×10^4 bacteria/ml concentrations. An aliquot of 50 μl (1250-1500 bacterial cells) was added to each well in 96-well Nunclon™ microtiter plates (Nagle Nunc Int., Denmark) preloaded with peptide solution (50 μl).
(§3) The microtiter plates were incubated for 24 h at 35° C. with optical density recorded every hour using an Envision 2103 multilabel reader, controlled by a Wallac Envision manager (PerkinElmer, Conn., USA). Minimum inhibitory concentration (MIC) was defined as a sample showing complete inhibition (as measured by optical density at 595 nm) compared to the negative (growth) controls, consisting of bacteria and water. Oxytetracycline (20 μM) served as a positive (inhibition) control.
(§4) The synthetic peptides were tested for antibacterial activity in concentrations ranging from 200 to 0.1 μM in two-fold dilutions. All tests were performed in triplicates.

[2] = test system: Escherichia coli (Ec, ATCC 25922)
Description: as §1, §2, §3, §4

[3] = test system: Pseudomonas aeruginosa (Pa, ATCC 27853)
Description: as §1, §2, §3, §4

[4] = test system: Staphylococcus aureus (Sa, ATCC 9144)
Description: as §1, §2, §3, §4

[5] = test system: Aureobasidium pullulans; details: 24 h
Description: (§5) The synthetic peptides were also screened for antifungal activity against Candida albicans (ATCC 10231), Aureobasidium pullulans and Rhodotorula sp. (the last two were obtained from Professor Arne Tronsmo, The Norwegian University of Life Sciences, As, Norway). The antifungal assay was performed as previously described (Sperstad, S. V., et al. (2009) Dev. Comp. Immunol. 33, 583-591). Briefly, fungal spores were dissolved in potato dextrose broth (Difco, Lawrence, Kans., USA) to a concentration of 4×10^5 spores/ml. The spores (50 μl) were inoculated on 96-well Nunclon™ microtiter plates containing the synthetic peptides (50 μl) dissolved in MQ-H2O. […] The negative (growth) control consisted of medium and fungal solution. The peptides were tested for activity in concentrations ranging from 100 to 0.1 μM in two-fold serial dilutions. All tests were performed in triplicates.

[6] = test system: Candida albicans (ATCC 10231)
Description: as §5

[7] = test system: Rhodotorula sp.; details: 24 h
Description: as §5

[8] = test system: human red blood cells; assay: Haemolytic assay; details: human red blood cells, one hour at 37° C.; for Haemolysis (%) 25 μM: peptide 25 μM; for Haemolysis (%) 200 μM: peptide 200 μM
Description: Selected synthesised peptide analogues were also screened for haemolytic activity using human red blood cells as described previously (Sperstad, S. V., et al. (2009) Dev. Comp. Immunol. 33, 583-591). The assay was performed on 96-well U-shaped microtiter plates (Nagle Nunc) with 50 μl peptide sample, 40 μl phosphate-buffered saline (PBS) and 10 μl red blood cells. After one hour of incubation at 37° C. in a shaker, the plate was centrifuged at 200 g for 5 min and the supernatants (60 μl) were carefully transferred to a new flat-bottomed polycarbonate microtiter plate (Nagle Nunc) and the release of haemoglobin (absorbance at 550 nm) was measured on a Synergy H1 multimode reader (BioTek, Vt., USA). Cell suspension added 0.05% Triton X-100 (Sigma-Aldrich, Mo., USA) in PBS served as positive (100% haemolysis) control and cell suspension added PBS served as negative (0% haemolysis, blank) control. The percent haemolysis was calculated using the formula [(Asample-Abaseline)/(Atriton-Abaseline)]×100. The cytotoxic peptide melittin (Sigma-Aldrich) was used as a positive control peptide and for comparison. The experiment was performed in triplicates with peptide concentrations ranging from 200 μM to 1.56 μM in two-fold dilutions.

[9] = 24 h at 35° C., complete inhibition by OD 595 nm

Row | Substance | MIC (μM) Cg ([1]; ATCC 13032, 24 h) | MIC (μM) Ec ([2]; ATCC 25922, 24 h) | MIC (μM) Pa ([3]; ATCC 27853, 24 h) | MIC (μM) Sa ([4]; ATCC 9144, 24 h) | MIC (μM) A. pullulans [5] | MIC (μM) C. albicans ([6]; ATCC 10231, 24 h) | MIC (μM) Rhodotorula sp. [7] | Haemolysis (%) 25 μM [8] | Haemolysis (%) 200 μM [8] | MIC (μM) Cg [1, 9] | MIC (μM) Ec [2, 9] | MIC (μM) Pa [3, 9] | MIC (μM) Sa [4, 9] | MIC (μM) C. albicans ([6]; no visible growth after 24 h at room temperature)
1 | RWWRRWVRRVRR-NH2 [HC(1-12)R1W6R8,9,12-NH2, RWWRRWVRRVRR-NH2] | 0.8 µM | 3.1 µM | 3.1 µM | 3.1 µM | 25 µM | 12.5 µM | 3.1 µM |  |  |  |  |  |  | 
2 | GWWRRAVAKVRK-NH2 [Peptide T6A, GWWRRAVAKVRK-NH2] | 1.6 µM |  |  |  | 25 µM | 25 µM | 12.5 µM | 0.9% | 4.1% |  |  |  |  | 
3 | GWWRRWVKKVRK-NH2 [HC(1-12)W6K8K12, GWWRRWVKKVRK-NH2] | 1.6 µM | 6.3 µM | 3.1 µM | 3.1 µM | 12.5 µM | 25 µM | 6.3 µM |  |  |  |  |  |  | 
4 | GWARRTVAKVRK-NH2 [Peptide W3A, GWARRTVAKVRK-NH2] | 0.8 µM |  |  |  | 50 µM | 50 µM | 25 µM | 0.0% | 0.0% |  |  |  |  | 
5 | GWARRWVAKVRK-NH2 [HC(1-12)A3W6A8K12, GWARRWVAKVRK-NH2] | 0.8 µM | 6.3 µM | 12.5 µM | 50 µM | 25 µM | 6.3 µM | 6.3 µM |  |  |  |  |  |  | 
6 | H-GWWRRTVAKVRN-NH2 [HC(1-12)A8, GWWRRTVAKVRN] | 1.6 µM | 6.3 µM | 6.3 µM | 50 µM |  |  |  |  |  |  |  |  |  | 
7 | GWWRRTVAKVRA-NH2 [Peptide K12A, GWWRRTVAKVRA-NH2] | 0.8 µM |  |  | 50 µM | 50 µM | 25 µM | 12.5 µM | 0.0% | 0.0% |  |  |  |  | 
8 | GWWARTVAKVRK-NH2 [Peptide R4A, GWWARTVAKVRK-NH2] | 1.6 µM | 6.3 µM | 12.5 µM | 50 µM | 50 µM | 25 µM | 50 µM | 0.0% | 3.6% |  |  |  |  | 
9 | AWWRRTVAKVRK-NH2 [Peptide G1A, AWWRRTVAKVRK-NH2] | 0.8 µM | 12.5 µM | 6.3 µM |  | 50 µM | 25 µM | 12.5 µM | 0.0% | 1.6% |  |  |  |  | 
10 | GWWRRWVAKVRK-NH2 [HC(1-12)W6A8K12, GWWRRWVAKVRK-NH2] |  |  |  |  | 50 µM |  |  |  |  | 0.8 µM | 1.6 µM | 1.6 µM | 3.1 µM | 12.5 µM
11 | GWWRRTVAKARK-NH2 [Peptide V10A, GWWRRTVAKARK-NH2] | 1.6 µM | 12.5 µM | 6.3 µM | 100 µM | 50 µM | 25 µM | 12.5 µM | 0.0% | 1.0% |  |  |  |  | 
12 | GWWRRTVAAVRK-NH2 [Peptide K9A, GWWRRTVAAVRK-NH2] | 1.6 µM |  |  | 100 µM | 25 µM | 25 µM | 12.5 µM | 0.0% | 5.1% |  |  |  |  | 
13 | H-GWWRRTVRK-NH2 [HC(1-9)R8, GWWRRTVRK] | 3.1 µM | 50 µM | 25 µM | 100 µM |  |  |  |  |  |  |  |  |  | 
14 | GWWRRTVAKVAK-NH2 [Peptide R11A, GWWRRTVAKVAK-NH2] | 1.6 µM | 12.5 µM | 12.5 µM | 100 µM | 50 µM | 25 µM | 12.5 µM | 0.0% | 0.0% |  |  |  |  | 
15 | GWWRRTVDKVRNAGRK [HC(1-16), GWWRRTVDKVRNAGRK] | 0.8 µM | 6.3 µM | 12.5 µM | 200 µM | 50 µM | 100 µM | 25 µM | 0.0% | 0.0% |  |  |  |  | 
16 | KWWRRWVKKVRK-NH2 [HC(1-12)K1W6K8K12, KWWRRWVKKVRK-NH2] | 0.4 µM | 3.1 µM | 1.6 µM | 6.3 µM | 25 µM | 6.3 µM | 3.1 µM |  |  |  |  |  |  | 
17 | GWWRRTAAKVRK-NH2 [Peptide V7A, GWWRRTAAKVRK-NH2] | 1.6 µM | 12.5 µM | 12.5 µM | 100 µM | 25 µM | 25 µM | 12.5 µM | 0.0% | 0.0% |  |  |  |  | 
18 | GAWRRTVAKVRK-NH2 [Peptide W2A, GAWRRTVAKVRK-NH2] | 3.1 µM |  |  | 100 µM | 50 µM | 50 µM | 25 µM | 0.0% | 0.0% |  |  |  |  | 
19 | GWWRRKVAKVRK-NH2 [HC(1-12)K6A8K12, GWWRRKVAKVRK-NH2] | 1.6 µM | 12.5 µM | 50 µM | 12.5 µM | 25 µM | 50 µM | 25 µM |  |  |  |  |  |  | 
20 | WWRRTVAKVRNAGRK-NH2 [HC(2-16)A7, WWRRTVAKVRNAGRK] | 0.4 µM | 6.3 µM | 25 µM | 12.5 µM |  |  |  |  |  |  |  |  |  | 
21 | GWWRRTVAKVRNAGRK-NH2 [HC(1-16)A8, GWWRRTVAKVRNAGRK] | 0.8 µM | 3.1 µM | 3.1 µM | 12.5 µM |  |  |  | 0.0% | 5.0% |  |  |  |  | 
